Where a SMILES comes first, the peptide text is derived from it. Bridges are numbered along the chain shown (N, C = ends).
Legend:
HT-29 cells = assay: Confocal imaging of labelled peptides in fixed, permeabilised HT-29 cells; type: cell-based, human; conditions: 10 nM labelled peptide, 30 min, cells untreated (DMSO), apoptosis (TNF + BV-6) or necroptosis (TSZ), 6 h, washed
Description: HT-29 cells grown in TC treated T175 flasks (Corning^TM) were aspirated, washed once with RT DPBS then trypsinised with 0.3 vol warmed trypsin EDTA for 3–5 min at 37 °C twice. Trypsin was quenched with 0.7 vol warmed D10 and then the mixture was centrifuged 400×g at RT for 5 min. Supernatant was discarded, then cells were resuspended in warm supplemented DMEM. A small sample was diluted 1:10 in trypan blue and loaded onto a haemocytometer for cell counting, then the cell suspension was diluted in warmed DMEM to 8.5 × 10^4 cells/ml. Cells were seeded onto a 96-well clear bottom PhenoPlate (Revvity) coated in a collagen I matrix at 1.7 × 10^4 cells/well and incubated at 37 °C in 5% CO2 overnight.
CellTracker^TM Orange CMRA (Invitrogen) was diluted to 5 μM in DMEM and warmed to 37 °C. HT-29 cells were washed once in DPBS, then CellTracker^TM Orange (50 μl) was added to each well (excluding wells to be incubated with Alexa Fluor 594-labelled control peptide) and incubated at 37 °C in 5% CO2 for 45 min. Following incubation, CellTracker^TM Orange solution was aspirated and replaced with 150 μl D10. […]
Imaging was performed on an Opera Phenix (PerkinElmer) at 63X magnification (water immersion) in confocal mode using the parameters given below. […] Intensity thresholds were adjusted as indicated to remove background fluorescence based on control wells for image exports. […] Cell counts were identified using DAPI stain (Method C) and cytoplasm identified by CellTracker^TM Orange stain (Method B), and all subsequent analysis was conducted on Cy5 fluorescence detected within cells as determined by these parameters. Total Cy5 intensity analysis, as well as spot analysis (spots detected using Method B), was performed measuring number of detected spots, mean spot size (px^2) and spot fluorescence intensity (corrected and relative). […] Statistical significance between untreated, apoptosis and necroptosis induced conditions and between no peptide controls was determined by 2-way ANOVA testing using Tukey’s multiple comparisons tests.

[1] = Turbidity assay (absorbance at 350 nm); type: physicochemical; conditions: qualitative, tetra-lysine-tagged compared with K* peptide
Description: Solutions with appropriate buffering agent at pH 4.0–8.0 as specified, NaCl as required and containing 40 μM ThT were prepared in Corning^TM black clear bottom 96-well plates (cat no. 3631). Peptides and proteins were diluted from concentrated stocks into buffer immediately prior to measurement. […] Plates were sealed with optically clear sealing film (Corning^TM, cat no. 6575) and loaded into a BMG POLARstar Omega microplate reader maintained at RT or 37 °C. Plates were shaken for 30 s at 700 rpm before first read (unless otherwise specified), and wells were excited at 440 nm, with fluorescence emission measured at 480 nm (filters +/– 10 nm). The gain was set at 1–5% from a buffer and ThT-containing sample. Assays were continued until fluorescence emission plateaued. Turbidity assays were performed concurrently to ThT assays, with absorbance at 350 nm measured after ThT emission measurement.

Compound | presence/binding of labelled peptide in fixed, permeabilised cells (HT-29 cells) | solubility [1]
CC(C)C[C@H](NC(=O)[C@H](C)NC(=O)[C@H](Cc1ccc(O)cc1)NC(=O)[C@H](Cc1ccccc1)NC(=O)[C@H](CCCNC(=N)N)NC(=O)[C@H](CCCCN)NC(=O)[C@H](C)NC(=O)[C@H](CCCNC(=N)N)NC(=O)[C@H](CC(C)C)NC(=O)[C@@H](NC(=O)[C@@H]1CSCC(=O)N[C@@H](Cc2ccc(O)cc2)C(=O)N[C@@H](C(C)C)C(=O)N[C@@H](CC(C)C)C(=O)N1)[C@@H](C)O)C(=O)N[C@@H](Cc1ccccc1)C(=O)N[C@@H](CC(C)C)C(=O)N[C@@H](CO)C(=O)NCC(=O)N[C@@H](CCCCN)C(=O)N[C@@H](CCCCN)C(=O)N[C@@H](CCCCN)C(=O)N[C@@H](CCCCN)C(=O)O [A1Ktag] ({CH2CO}-YVLCTLRAKRFYALFLSGKKKK-OH; thioether N-4; C-terminus assumed) | observed inside all cells | increased solubility
CC[C@H](C)[C@@H]1NC(=O)[C@H](Cc2ccc(O)cc2)NC(=O)[C@H](CCCNC(=N)N)NC(=O)[C@H](CO)NC(=O)[C@H](Cc2c[nH]c3ccccc23)NC(=O)[C@@H]2CCCN2C(=O)[C@H](C(C)C)NC(=O)[C@H](CC(N)=O)NC(=O)[C@H](Cc2ccccc2)NC(=O)[C@H](Cc2ccc(O)cc2)NC(=O)CSC[C@@H](C(=O)NCC(=O)N[C@@H](CCCCN)C(=O)N[C@@H](CCCCN)C(=O)N[C@@H](CCCCN)C(=O)N[C@@H](CCCCN)C(=O)O)NC(=O)[C@H](Cc2ccc(O)cc2)NC(=O)[C@H](Cc2ccc(O)cc2)NC(=O)[C@H](C(C)C)NC(=O)[C@H](CO)NC(=O)[C@H](CC(C)C)NC1=O [A2Ktag] ({CH2CO}-YFNVPWSRYILSVYYCGKKKK-OH; thioether N-16; C-terminus assumed) | observed inside all cells | 
CC[C@H](C)[C@@H]1NC(=O)[C@H](Cc2ccc(O)cc2)NC(=O)CSC[C@@H](C(=O)N[C@@H](Cc2c[nH]c3ccccc23)C(=O)N[C@H](C(=O)N[C@@H](Cc2c[nH]c3ccccc23)C(=O)N[C@@H](CC(C)C)C(=O)N[C@@H](CC(C)C)C(=O)N[C@@H](CO)C(=O)NCC(=O)N[C@@H](CCCCN)C(=O)N[C@@H](CCCCN)C(=O)N[C@@H](CCCCN)C(=O)N[C@@H](CCCCN)C(=O)O)C(C)C)NC(=O)[C@H](CCC(N)=O)NC(=O)[C@H](CC(=O)O)NC(=O)[C@H](Cc2ccc(O)cc2)NC(=O)[C@H](Cc2c[nH]c3ccccc23)NC(=O)[C@H](CCCNC(=N)N)NC(=O)[C@H](CC(C)C)NC(=O)[C@H](C(C)C)NC(=O)[C@H](CCC(=O)O)NC1=O [A4Ktag] ({CH2CO}-YIEVLRWYDQCWVWLLSGKKKK-OH; thioether N-11; C-terminus assumed) | observed inside all cells | 
